This note sets out measurements from ChEMBL document CHEMBL5120930, “Discovery of Benzylpiperazine Derivatives as CNS-Penetrant and Selective Histone Deacetylase 6 Inhibitors” (ACS Med Chem Lett, 2022).

The source made the active and inactive calls. The rule behind the calls is not given here. Bounds are passed on as bounds.

In one data set the target is Histone deacetylase 1 (Homo sapiens, UniProt Q13547). As to the kind of experiment: Inhibition of human HDAC1 expressed in human HEK-293T cells using fluorescent peptide RHKKAc as substrate preincubated for 10 mins followed by substrate addition and measured after 1 hr by fluorogenic assay.
Chain of Histone deacetylase 1 (Q13547 whole entry): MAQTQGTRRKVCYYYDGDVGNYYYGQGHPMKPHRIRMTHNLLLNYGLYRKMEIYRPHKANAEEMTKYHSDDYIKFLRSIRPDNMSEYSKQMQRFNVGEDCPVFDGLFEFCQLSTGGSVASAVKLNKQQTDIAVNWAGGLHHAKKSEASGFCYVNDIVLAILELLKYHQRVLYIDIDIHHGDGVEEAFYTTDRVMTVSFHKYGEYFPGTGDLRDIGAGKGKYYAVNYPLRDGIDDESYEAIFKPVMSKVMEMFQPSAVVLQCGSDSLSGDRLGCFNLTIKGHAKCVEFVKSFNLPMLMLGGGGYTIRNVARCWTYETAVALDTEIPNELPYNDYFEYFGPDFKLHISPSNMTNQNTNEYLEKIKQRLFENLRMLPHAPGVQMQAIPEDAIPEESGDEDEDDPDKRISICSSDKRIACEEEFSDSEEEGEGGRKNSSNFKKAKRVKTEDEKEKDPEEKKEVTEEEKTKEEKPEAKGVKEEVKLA
Data set [1] in a line: Lipophilicity, logD of compound at pH 7.4 measured after 20 mins by UPLC analysis. Type of data set: physicochemical. The following applies: buffer.
Data set [2] addresses T1, Protein deacetylase HDAC6 (Mus musculus, UniProt Q9Z2V5).
T1 sequence (Q9Z2V5 whole entry): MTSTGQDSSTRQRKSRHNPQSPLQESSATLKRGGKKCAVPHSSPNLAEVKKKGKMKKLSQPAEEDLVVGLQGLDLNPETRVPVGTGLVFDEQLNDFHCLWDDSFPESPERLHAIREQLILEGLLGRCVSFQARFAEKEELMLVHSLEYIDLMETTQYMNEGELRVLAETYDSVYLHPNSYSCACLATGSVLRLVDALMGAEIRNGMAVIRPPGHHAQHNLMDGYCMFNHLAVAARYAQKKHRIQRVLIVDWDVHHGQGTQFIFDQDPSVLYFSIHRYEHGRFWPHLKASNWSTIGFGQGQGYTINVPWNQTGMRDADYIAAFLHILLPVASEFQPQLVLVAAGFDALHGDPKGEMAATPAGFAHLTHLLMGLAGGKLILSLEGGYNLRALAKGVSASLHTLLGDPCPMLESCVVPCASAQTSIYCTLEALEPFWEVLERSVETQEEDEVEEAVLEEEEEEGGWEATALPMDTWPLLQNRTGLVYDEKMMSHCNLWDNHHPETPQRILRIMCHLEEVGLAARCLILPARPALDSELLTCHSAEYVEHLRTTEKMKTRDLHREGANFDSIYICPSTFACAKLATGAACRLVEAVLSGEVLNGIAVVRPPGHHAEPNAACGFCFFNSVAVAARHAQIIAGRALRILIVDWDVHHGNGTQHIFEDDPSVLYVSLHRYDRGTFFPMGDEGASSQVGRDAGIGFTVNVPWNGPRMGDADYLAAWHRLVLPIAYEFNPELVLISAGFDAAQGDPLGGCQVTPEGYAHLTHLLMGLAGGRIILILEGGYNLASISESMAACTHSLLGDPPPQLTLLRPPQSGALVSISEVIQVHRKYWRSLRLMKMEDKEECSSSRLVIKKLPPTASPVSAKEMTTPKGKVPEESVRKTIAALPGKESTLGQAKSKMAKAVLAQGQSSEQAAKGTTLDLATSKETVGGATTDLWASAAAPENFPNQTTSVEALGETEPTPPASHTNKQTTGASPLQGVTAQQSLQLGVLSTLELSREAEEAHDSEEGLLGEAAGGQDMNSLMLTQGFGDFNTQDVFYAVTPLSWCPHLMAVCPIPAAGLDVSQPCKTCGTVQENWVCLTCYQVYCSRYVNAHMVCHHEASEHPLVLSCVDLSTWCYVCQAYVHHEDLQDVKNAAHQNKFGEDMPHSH
As to the kind of experiment: Inhibition of mouse HDAC6 expressed in human HEK-293T cells using fluorescent peptide Ac-KGLGK(Ac)-MCA as substrate preincubated for 10 mins followed by substrate addition and measured after 1 hr by fluorogenic assay. Type of data set: cell-based.

In data set [3] the test system is Mus musculus. As to the kind of experiment: Antidepressant activity in restraint-stressed C57BL/6J mouse model assessed as reduction in immobility time at 10 mg/kg, ip measured at 14 mins relative to control (Rvb= 569.6 +/- 27.6 sec). Type of data set: functional.
The species named for data set [4] is Homo sapiens. Kind of data set: Selectivity ratio of IC50 for inhibition of human HDAC1 expressed in human HEK-293T cells using fluorescent peptide RHKKAc as substrate to IC50 for inhibition of mouse HDAC6 expressed in human HEK-293T cells using fluorescent peptide Ac-KGLGK(Ac)-MCA as substrate. Type of data set: cell-based.
The nature of data set [5]: Apparent permeability in human Caco-2 cells incubated for 2 hrs by LC-MS/MS analysis. Type of data set: ADME, cell-based. For orientation: Caco-2 monolayers are a common model of the intestinal barrier.
Data set [6] is described as follows: Metabolic stability in mouse liver microsomes assessed as parent compound remaining at 500 uM measured at 60 mins by LC-MS/MS analysis. Type of data set: ADME, Microsome. Conditions: read-out: Stability.
A short description of data set [7]: Metabolic stability in human liver microsomes assessed as parent compound remaining at 500 uM measured at 60 mins by LC-MS/MS analysis. Type of data set: ADME, Microsome. Conditions: read-out: Stability. A general note: Liver microsomes are a subcellular fraction often used to study metabolism.
The species entered for data set [8] is Homo sapiens. As to the kind of experiment: Selectivity ratio of IC50 for inhibition of human HDAC4 using fluorescent peptide Boc-Lys(trifluoroacetyl)-AMC as substrate to IC50 for inhibition of mouse HDAC6 expressed in human HEK-293T cells using fluorescent peptide Ac-KGLGK(Ac)-MCA as substrate.
The next data set addresses Histone deacetylase 4 (Homo sapiens, UniProt P56524). Kind of data set: Inhibition of human HDAC4 using fluorescent peptide Boc-Lys(trifluoroacetyl)-AMC as substrate preincubated for 10 mins followed by substrate addition and measured after 30 mins by fluorogenic assay.
Data set [9] deals with Voltage-gated inwardly rectifying potassium channel KCNH2 (Homo sapiens, UniProt Q12809). As to the kind of experiment: Inhibition of human ERG potassium channel by fluorescence polarization assay. In kind it is toxicity.
Chain of Voltage-gated inwardly rectifying potassium channel KCNH2 (Q12809 whole entry): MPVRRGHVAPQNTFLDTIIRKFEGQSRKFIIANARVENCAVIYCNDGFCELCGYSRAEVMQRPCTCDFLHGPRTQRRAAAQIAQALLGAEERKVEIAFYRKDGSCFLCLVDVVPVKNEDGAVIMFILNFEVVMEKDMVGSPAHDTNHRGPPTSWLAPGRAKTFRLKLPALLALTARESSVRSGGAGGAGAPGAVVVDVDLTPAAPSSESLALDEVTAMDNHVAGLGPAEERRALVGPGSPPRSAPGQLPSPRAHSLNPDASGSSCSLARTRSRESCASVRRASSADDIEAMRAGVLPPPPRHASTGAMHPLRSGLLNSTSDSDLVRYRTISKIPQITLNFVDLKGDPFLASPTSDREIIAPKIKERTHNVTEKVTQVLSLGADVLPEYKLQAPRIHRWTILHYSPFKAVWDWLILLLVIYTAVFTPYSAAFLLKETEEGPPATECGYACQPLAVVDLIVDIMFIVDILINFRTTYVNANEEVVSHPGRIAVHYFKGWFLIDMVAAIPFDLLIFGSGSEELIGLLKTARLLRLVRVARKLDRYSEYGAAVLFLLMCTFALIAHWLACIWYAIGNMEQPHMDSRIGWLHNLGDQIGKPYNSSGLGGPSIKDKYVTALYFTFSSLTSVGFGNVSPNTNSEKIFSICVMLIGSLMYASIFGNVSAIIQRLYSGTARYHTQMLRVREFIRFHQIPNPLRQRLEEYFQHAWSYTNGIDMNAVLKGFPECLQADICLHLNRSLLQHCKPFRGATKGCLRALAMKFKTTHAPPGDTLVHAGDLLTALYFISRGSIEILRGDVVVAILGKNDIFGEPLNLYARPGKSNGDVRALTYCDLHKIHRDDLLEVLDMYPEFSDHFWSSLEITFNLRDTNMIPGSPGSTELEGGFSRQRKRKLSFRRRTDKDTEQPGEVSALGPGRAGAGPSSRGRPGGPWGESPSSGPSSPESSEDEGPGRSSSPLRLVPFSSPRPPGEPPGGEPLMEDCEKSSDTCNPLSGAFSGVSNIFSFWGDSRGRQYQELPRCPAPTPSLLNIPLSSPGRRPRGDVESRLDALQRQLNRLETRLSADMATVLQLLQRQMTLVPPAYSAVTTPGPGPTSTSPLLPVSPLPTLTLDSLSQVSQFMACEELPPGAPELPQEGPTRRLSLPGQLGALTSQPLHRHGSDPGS
Data set [10] can be described thus: Brain to plasma ratio in C57BL/6J mouse at 10 mg/kg, iv measured after 45 mins by LC-MS/MS analysis. In kind it is ADME, organism-based. Conditions: brain and plasma, read-out: BPR.
The subject of data set [11] is Mus musculus. Kind of data set: Antidepressant activity in restraint-stressed C57BL/6J mouse model assessed as increase in acetylated alpha tubulin level in brain at 10 mg/kg, ip measured after 15 mins. Type of data set: functional, organism-based.
The subject of data set [12] is Mus musculus. As to the kind of experiment: Antidepressant activity in restraint-stressed C57BL/6J mouse model assessed as reduction in immobility time at 20 mg/kg, ip measured at 14 mins relative to control (Rvb= 569.6 +/- 27.6 sec). In kind it is functional.

Chain of Histone deacetylase 4 (P56524 whole entry): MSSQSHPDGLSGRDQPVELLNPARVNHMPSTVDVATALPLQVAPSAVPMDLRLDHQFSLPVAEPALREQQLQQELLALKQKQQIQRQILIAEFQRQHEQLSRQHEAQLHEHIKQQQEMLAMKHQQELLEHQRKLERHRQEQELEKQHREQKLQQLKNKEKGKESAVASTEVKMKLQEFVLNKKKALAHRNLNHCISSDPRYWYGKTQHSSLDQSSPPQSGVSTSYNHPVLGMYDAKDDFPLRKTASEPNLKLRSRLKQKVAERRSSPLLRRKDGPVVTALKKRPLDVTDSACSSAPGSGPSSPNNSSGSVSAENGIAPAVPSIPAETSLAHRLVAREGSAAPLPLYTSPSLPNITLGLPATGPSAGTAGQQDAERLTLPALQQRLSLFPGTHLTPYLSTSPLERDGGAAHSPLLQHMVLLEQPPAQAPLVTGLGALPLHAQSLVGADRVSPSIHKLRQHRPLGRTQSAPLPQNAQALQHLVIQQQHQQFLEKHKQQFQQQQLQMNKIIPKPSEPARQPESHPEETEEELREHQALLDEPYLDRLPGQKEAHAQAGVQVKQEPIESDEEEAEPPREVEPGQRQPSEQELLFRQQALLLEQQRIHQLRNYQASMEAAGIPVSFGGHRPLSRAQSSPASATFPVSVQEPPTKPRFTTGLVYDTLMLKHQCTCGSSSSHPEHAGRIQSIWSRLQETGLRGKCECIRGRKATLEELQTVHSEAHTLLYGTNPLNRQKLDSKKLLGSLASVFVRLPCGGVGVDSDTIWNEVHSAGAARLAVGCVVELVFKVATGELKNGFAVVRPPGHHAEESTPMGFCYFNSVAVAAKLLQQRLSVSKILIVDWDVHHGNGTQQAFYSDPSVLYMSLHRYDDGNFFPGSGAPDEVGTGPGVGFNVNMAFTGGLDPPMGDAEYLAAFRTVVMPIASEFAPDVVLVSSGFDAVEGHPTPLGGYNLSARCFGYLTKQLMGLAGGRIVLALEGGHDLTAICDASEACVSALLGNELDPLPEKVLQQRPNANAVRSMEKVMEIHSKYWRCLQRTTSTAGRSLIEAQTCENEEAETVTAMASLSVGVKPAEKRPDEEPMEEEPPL

In the case of `O=C(NO)c1ccc(CN2CCN(Cc3ccccc3)CC2)cc1`, the IC50 (in general, the concentration that inhibits the measured activity by half) at Histone deacetylase 1 was 10.4 µM; in data set [2], 0.26 µM; on Histone deacetylase 4 it was 9.2 µM; in [9], 73.1 µM. For the same molecule, the pH-dependent lipophilicity (logD) (as a rule, lipophilicity at a set pH, counting ionised and neutral species) at 20 min in data set [1] was 1.9. Moreover, in the data set on Mus musculus [3], the Time is on record as 507.3 s. The Ratio IC50 in the data set listed under Homo sapiens [4] came to 40; in the data set listed under Homo sapiens [8], 35. Also, the Papp (commonly a coefficient for how fast a substance crosses the barrier) at 2 h in data set [5] was found to be 11.6 ×10⁻⁶ cm/s. For the same molecule, in [6], the remaining at 1 h, 500 µM came to 80%. Moreover, the remaining at 1 h in [7] is 73%. The Kp at 0.75 h in data set [10] is 4.37.
Consider `O=C(NO)c1ccc(CCN2CCN(C(c3ccccc3)c3ccccc3)CC2)cc1`, for which the figures for the IC50 (against Histone deacetylase 1; in data set [2]; against Histone deacetylase 4) were 4.8 µM, 0.33 µM and 3 µM, respectively. Moreover, the Ratio IC50 in the data set filed under Homo sapiens [4] amounted to 15; in the data set filed under Homo sapiens [8], 9.
For `O=C(NO)c1cccc(CN2CCN(C(c3ccccc3)c3ccccc3)CC2)c1`, the IC50 on Histone deacetylase 1 is 46.6 µM; in [2], 6.6 µM; against Histone deacetylase 4 it was above 100 µM. Moreover, in the data set filed under Homo sapiens [4], the Ratio IC50 was found to be 7.
Turning to `CC(c1ccccc1)N1CCN(Cc2ccc(C(=O)NO)cc2)CC1` (stereo not given), the IC50 at Histone deacetylase 1 is 6.7 µM; in [2], 0.26 µM; on Histone deacetylase 4 it was 12.3 µM; in data set [9] it was 106 µM. In data set [1], this molecule registered a logD at 20 min of 2.1. Besides, the Time in the data set with Mus musculus [3] is reported as 453 s. In addition, the Ratio IC50 amounted to 26 in the data set filed under Homo sapiens [4] and 47 in the data set filed under Homo sapiens [8]. Besides, the Papp at 2 h in data set [5] turned out to be 10.9 ×10⁻⁶ cm/s. Besides, in [6], the remaining at 1 h, 500 µM was 67%. In addition, the remaining at 1 h in [7] came to 63%. Further, the outcome with Mus musculus [11] was Active. Moreover, the Kp at 0.75 h in data set [10] was 6.73.
Take `O=C(NO)c1ccccc1CN1CCN(C(c2ccccc2)c2ccccc2)CC1`: the IC50 (against Histone deacetylase 1; in [2]; at Histone deacetylase 4) was above 100 µM in each case.
On to `O=C(NO)c1ccc(CN2CCN(C(c3ccccc3)c3ccccc3)CC2)cc1`, for which the IC50 against Histone deacetylase 1 was determined as 4.4 µM; in data set [2], 0.11 µM; against Histone deacetylase 4, 4.4 µM; in data set [9] it was 0.66 µM. This molecule came in with a pH-dependent lipophilicity (logD) at 20 min in [1] of 3.8. For the same molecule, the Time with Mus musculus [3] is listed as 410.7 s. In addition, the Ratio IC50 in the data set listed under Homo sapiens [4] and in the data set filed under Homo sapiens [8] was 40 in each case. In data set [5], the Papp at 2 h came to 17.1 ×10⁻⁶ cm/s. In addition, the remaining at 1 h, 500 µM in [6] is 1%. Further, in [7], the remaining at 1 h is 62%. Besides, in data set [10], the Kp at 0.75 h amounted to 7.91.
On to `CNCCC(Oc1ccc(C(F)(F)F)cc1)c1ccccc1` (stereo not given) [FLUOXETINE], for which, in the data set on Mus musculus [12], the Time stood at 405.5 s.
On to `O=C(NO)c1ccc(CCCCN2CCN(C(c3ccccc3)c3ccccc3)CC2)cc1`, for which the IC50 at Histone deacetylase 1 was determined as 5.5 µM; in data set [2], 0.43 µM; against Histone deacetylase 4, 5 µM. For the same molecule, the values for the Ratio IC50 in the data set listed under Homo sapiens [4] and in the data set listed under Homo sapiens [8] were 13 and 12, respectively.
Turning to `O=C(NO)c1ccc(CCCN2CCN(C(c3ccccc3)c3ccccc3)CC2)cc1`, the results for the IC50 (against Histone deacetylase 1; in [2]; against Histone deacetylase 4) were 3.8 µM, 0.58 µM and 1.9 µM, respectively. Also, the Ratio IC50 in the data set filed under Homo sapiens [4] is 7; in the data set filed under Homo sapiens [8] it was 3.
